The NIST ThermoML archive (doi:10.1016/j.jct.2005.01.002)
± gives the expanded uncertainty stated by the source.

Key:
[1] = 101.33 kPa, Liquid
[2] = xn = mol fraction of the nth substance listed; settings: 101 kPa, Liquid

CCCCCOCCCCC [dipentyl ether]
[1]
Settings | mass density [kg/m3]
298.15 K | 778.96 ± 0.73
313.15 K | 768.65 ± 0.75
328.15 K | 756.32 ± 0.77
343.15 K | 743.97 ± 0.79
358.15 K | 731.37 ± 0.81

CC(C)OC(C)C [diisopropyl ether] + CN(C)C=O
mass density [kg/m3], [2]
Settings | 298.15 K | 313.15 K | 328.15 K
x2 = 0.0551 | 726.89 ± 0.64 | 711.08 ± 0.66 | 694.81 ± 0.67
x2 = 0.0998 | 733.84 ± 0.63 | 718.04 ± 0.64 | 701.68 ± 0.66
x2 = 0.1567 | 742.64 ± 0.61 | 726.81 ± 0.63 | 710.25 ± 0.64
x2 = 0.2133 | 751.81 ± 0.59 | 736.08 ± 0.61 | 719.61 ± 0.63
x2 = 0.2581 | 759.64 ± 0.58 | 743.93 ± 0.59 | 727.41 ± 0.61
x2 = 0.3049 | 767.92 ± 0.56 | 752.25 ± 0.58 | 735.75 ± 0.6
x2 = 0.3548 | 777.09 ± 0.54 | 761.49 ± 0.56 | 744.95 ± 0.58
x2 = 0.4003 | 785.84 ± 0.53 | 770.29 ± 0.55 | 753.71 ± 0.56
x2 = 0.4401 | 793.67 ± 0.51 | 778.18 ± 0.53 | 761.59 ± 0.55
x2 = 0.4868 | 803.29 ± 0.5 | 787.92 ± 0.52 | 771.3 ± 0.54
x2 = 0.5049 | 807.13 ± 0.49 | 791.8 ± 0.51 | 775.18 ± 0.53
x2 = 0.5285 | 812.21 ± 0.48 | 796.95 ± 0.5 | 780.34 ± 0.52
x2 = 0.5548 | 818.02 ± 0.47 | 802.83 ± 0.49 | 786.22 ± 0.51
x2 = 0.6182 | 832.62 ± 0.44 | 817.65 ± 0.46 | 801.09 ± 0.48
x2 = 0.653 | 840.97 ± 0.42 | 826.05 ± 0.44 | 809.51 ± 0.46
x2 = 0.7137 | 856.34 ± 0.39 | 841.67 ± 0.41 | 825.18 ± 0.43
x2 = 0.7611 | 869.01 ± 0.37 | 854.62 ± 0.39 | 838.24 ± 0.41
x2 = 0.801 | 880.32 ± 0.35 | 866.12 ± 0.37 | 849.8 ± 0.39
x2 = 0.8447 | 893.01 ± 0.32 | 879.09 ± 0.34 | 862.93 ± 0.36
x2 = 0.9027 | 911.02 ± 0.29 | 897.56 ± 0.31 | 881.59 ± 0.33
x2 = 0.9502 | 926.7 ± 0.26 | 913.74 ± 0.28 | 897.98 ± 0.3

CC(C)OC(C)C [diisopropyl ether]
[1]
Settings | mass density [kg/m3]
298.15 K | 718.51 ± 0.66
313.15 K | 702.59 ± 0.68
328.15 K | 686.2 ± 0.7

CN(C)C=O [dimethylformamide]
[1]
Settings | mass density [kg/m3]
298.15 K | 943.85 ± 0.23
313.15 K | 930.98 ± 0.25
328.15 K | 915.07 ± 0.27
343.15 K | 900.41 ± 0.29
358.15 K | 885.68 ± 0.32

CCOCC [diethyl ether]
Settings | mass density [kg/m3]
[1], 298.15 K | 707.79 ± 0.68

CCCOCCC [dipropyl ether]
[1]
Settings | mass density [kg/m3]
298.15 K | 741.94 ± 0.64
313.15 K | 727.87 ± 0.66
328.15 K | 713.73 ± 0.67
343.15 K | 699.61 ± 0.69
358.15 K | 684.92 ± 0.7

CCOCC [diethyl ether] + CN(C)C=O
[2], 298.15 K
Settings | mass density [kg/m3]
x2 = 0.0575 | 720.7 ± 0.65
x2 = 0.1033 | 730.11 ± 0.63
x2 = 0.1606 | 742.64 ± 0.61
x2 = 0.2076 | 752.93 ± 0.59
x2 = 0.2524 | 762.76 ± 0.57
x2 = 0.2979 | 772.93 ± 0.56
x2 = 0.3683 | 788.85 ± 0.53
x2 = 0.4058 | 797.64 ± 0.52
x2 = 0.4414 | 805.85 ± 0.5
x2 = 0.4932 | 818.09 ± 0.48
x2 = 0.5094 | 821.95 ± 0.48
x2 = 0.53 | 826.82 ± 0.47
x2 = 0.5595 | 833.95 ± 0.45
x2 = 0.6229 | 849.26 ± 0.42
x2 = 0.643 | 854.21 ± 0.41
x2 = 0.717 | 872.52 ± 0.37
x2 = 0.7584 | 882.84 ± 0.35
x2 = 0.8124 | 896.81 ± 0.33
x2 = 0.8523 | 906.61 ± 0.31
x2 = 0.9295 | 926.56 ± 0.27
x2 = 0.9655 | 936.09 ± 0.25
